Measured values published in PubChem BioAssay AID1919008 (Molecular Pharmacology Branch, DTP, NCI, 2023).

Test system: DMS-114 complex spheroids with HUVEC/MSC, growth % test/control
Assay: Anticancer human tumor DMS-114 cell line growth inhibition [AhR];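 also: spheroids exposed to agents for 7 days before readout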;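 as to viability, T/C: 100% = DMSO vehicle control wells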
Conditions: for IC50: curve of first compound; for viability, T/C: stronger effect = lower value
Method in brief: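 Spheroids combined tumor cells with HUVEC endothelial cells and human MSCs as stroma. AhR antagonists were paired with standard or investigational drugs, each dosed in half-log steps down from near clinical Cmax, or from 10 microM where Cmax was unknown.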

[1] = second compound 0.1 µM, first compound 0.00316 µM
[2] = second compound 0.1 µM, first compound 0.01 µM
[3] = second compound 0.1 µM, first compound 0.0316 µM
[4] = second compound 0.1 µM, first compound 0.1 µM
[5] = second compound 0.316 µM, first compound 0.00316 µM
[6] = second compound 0.316 µM, first compound 0.01 µM
[7] = second compound 0.316 µM, first compound 0.0316 µM
[8] = second compound 0.316 µM, first compound 0.1 µM
[9] = second compound 1 µM, first compound 0.00316 µM
[10] = second compound 1 µM, first compound 0.01 µM
[11] = second compound 1 µM, first compound 0.0316 µM
[12] = second compound 1 µM, first compound 0.1 µM
[13] = second compound 3.16 µM, first compound 0.00316 µM
[14] = second compound 3.16 µM, first compound 0.01 µM
[15] = second compound 3.16 µM, first compound 0.0316 µM
[16] = second compound 3.16 µM, first compound 0.1 µM
[17] = second compound 10 µM, first compound 0.00316 µM
[18] = second compound 10 µM, first compound 0.01 µM
[19] = second compound 10 µM, first compound 0.0316 µM
[20] = second compound 10 µM, first compound 0.1 µM
[21] = second compound 0.1 µM, first compound 0.316 µM
[22] = second compound 0.1 µM, first compound 1 µM
[23] = second compound 0.1 µM, first compound 3.16 µM
[24] = second compound 0.1 µM, first compound 10 µM
[25] = second compound 0.316 µM, first compound 0.316 µM
[26] = second compound 0.316 µM, first compound 1 µM
[27] = second compound 0.316 µM, first compound 3.16 µM
[28] = second compound 0.316 µM, first compound 10 µM
[29] = second compound 1 µM, first compound 0.316 µM
[30] = second compound 1 µM, first compound 1 µM
[31] = second compound 1 µM, first compound 3.16 µM
[32] = second compound 1 µM, first compound 10 µM
[33] = second compound 3.16 µM, first compound 0.316 µM
[34] = second compound 3.16 µM, first compound 1 µM
[35] = second compound 3.16 µM, first compound 3.16 µM
[36] = second compound 3.16 µM, first compound 10 µM
[37] = second compound 10 µM, first compound 0.316 µM
[38] = second compound 10 µM, first compound 1 µM
[39] = second compound 10 µM, first compound 3.16 µM
[40] = second compound 10 µM, first compound 10 µM

Row | Structure (SMILES) | IC50 (second compound 0.1 µM) | IC50 (second compound 0.316 µM) | IC50 (second compound 1 µM) | IC50 (second compound 3.16 µM) | IC50 (second compound 10 µM) | viability, T/C [3] | viability, T/C [4] | viability, T/C [7] | viability, T/C [8] | viability, T/C [11] | viability, T/C [12] | viability, T/C [15] | viability, T/C [16] | viability, T/C [19] | viability, T/C [20] | viability, T/C [21] | viability, T/C [22] | viability, T/C [25] | viability, T/C [26] | viability, T/C [29] | other results
1 | CC[C@@]1(O)C(=O)OCc2c1cc1n(c2=O)Cc2cc3c(CN(C)C)c(O)ccc3nc2-1 + Cc1cncc(-c2nc(NCCc3c[nH]c4ccccc34)c3ncn(C(C)C)c3n2)c1 | 23.6 nM | 23.2 nM | 25.9 nM | 21.9 nM | < 0.316 nM | 41.1% | 16.7% | 37.8% | 17% | 42.1% | 19.5% | 39.8% | 17.8% | 16.7% | 9.82% | – | – | – | – | – | viability, T/C (second compound 0.1 µM, first compound 0.000316 µM): 93.4%; viability, T/C (second compound 0.1 µM, first compound 0.001 µM): 99.2%; viability, T/C [1]: 85.8%; viability, T/C [2]: 75.6%; viability, T/C (second compound 0.316 µM, first compound 0.000316 µM): 93.4%; viability, T/C (second compound 0.316 µM, first compound 0.001 µM): 101%; viability, T/C [5]: 83.8%; viability, T/C [6]: 83.2%; viability, T/C (second compound 1 µM, first compound 0.000316 µM): 97.3%; viability, T/C (second compound 1 µM, first compound 0.001 µM): 112%; viability, T/C [9]: 94.5%; viability, T/C [10]: 86%; viability, T/C (second compound 3.16 µM, first compound 0.000316 µM): 99.7%; viability, T/C (second compound 3.16 µM, first compound 0.001 µM): 94%; viability, T/C [13]: 96.1%; viability, T/C [14]: 71.9%; viability, T/C (second compound 10 µM, first compound 0.000316 µM): 40.1%; viability, T/C (second compound 10 µM, first compound 0.001 µM): 43.7%; viability, T/C [17]: 37.1%; viability, T/C [18]: 27.2%
2 | COc1cc(C2c3cc4c(cc3C(OC3OC5COC(C)OC5C(O)C3O)C3COC(=O)C23)OCO4)cc(OC)c1O (stereo not given) + Cc1cncc(-c2nc(NCCc3c[nH]c4ccccc34)c3ncn(C(C)C)c3n2)c1 | 448 nM | 351 nM | 390 nM | 298 nM | < 31.6 nM | 102% | 97.8% | 96.4% | 96.3% | 92.7% | 94.6% | 87.1% | 93.3% | 42.3% | 41.6% | 58.1% | 27% | 50.4% | 24.9% | 54.6% | viability, T/C [23]: 16.5%; viability, T/C [24]: 8.1%; viability, T/C [27]: 16.3%; viability, T/C [28]: 9.46%; viability, T/C [30]: 23.5%; viability, T/C [31]: 17.6%; viability, T/C [32]: 9.48%; viability, T/C [33]: 47.5%; viability, T/C [34]: 21.9%; viability, T/C [35]: 15.7%; viability, T/C [36]: 8.67%; viability, T/C [37]: 21.7%; viability, T/C [38]: 10.2%; viability, T/C [39]: 8.09%; viability, T/C [40]: 5.18%
3 | Nc1ccn(C2OC(CO)C(O)C2(F)F)c(=O)n1 (stereo not given) + Cc1cncc(-c2nc(NCCc3c[nH]c4ccccc34)c3ncn(C(C)C)c3n2)c1 | < 31.6 nM | < 31.6 nM | < 31.6 nM | < 31.6 nM | < 31.6 nM | 8.56% | 9.8% | 8.17% | 8.73% | 9.4% | 10.1% | 8.74% | 10.6% | 9.18% | 7.73% | 9.67% | 7.95% | 9.32% | 9.26% | 8.34% | viability, T/C [23]: 10.1%; viability, T/C [24]: 8.44%; viability, T/C [27]: 8.71%; viability, T/C [28]: 9.3%; viability, T/C [30]: 9.34%; viability, T/C [31]: 8.86%; viability, T/C [32]: 9.03%; viability, T/C [33]: 11.1%; viability, T/C [34]: 8.92%; viability, T/C [35]: 9.63%; viability, T/C [36]: 8.89%; viability, T/C [37]: 8.82%; viability, T/C [38]: 7.58%; viability, T/C [39]: 8.49%; viability, T/C [40]: 9.08%
4 | Nc1ncn(C2CC(O)C(CO)O2)c(=O)n1 (stereo not given) + Cc1cncc(-c2nc(NCCc3c[nH]c4ccccc34)c3ncn(C(C)C)c3n2)c1 | > 1000 nM | > 1000 nM | > 1000 nM | > 1000 nM | < 3.16 nM | 99.5% | 101% | 90.6% | 88% | 81.5% | 94.3% | 86.5% | 81.7% | 44.8% | 45.5% | 77% | 54.8% | 74.3% | 52.3% | 86.4% | viability, T/C [1]: 111%; viability, T/C [2]: 88.5%; viability, T/C [5]: 90.4%; viability, T/C [6]: 93.1%; viability, T/C [9]: 97.8%; viability, T/C [10]: 91.7%; viability, T/C [30]: 62%; viability, T/C [13]: 82.9%; viability, T/C [14]: 86.5%; viability, T/C [33]: 85.2%; viability, T/C [34]: 68.8%; viability, T/C [17]: 31.6%; viability, T/C [18]: 36.9%; viability, T/C [37]: 35.6%; viability, T/C [38]: 37.1%
